Target: T1, human ATP13A3 WT (A3 WT-OE) (Homo sapiens, UniProt Q9H7F0)
T1 construct: compared with catalytically dead D498N
T1 sequence (Q9H7F0 1-1226): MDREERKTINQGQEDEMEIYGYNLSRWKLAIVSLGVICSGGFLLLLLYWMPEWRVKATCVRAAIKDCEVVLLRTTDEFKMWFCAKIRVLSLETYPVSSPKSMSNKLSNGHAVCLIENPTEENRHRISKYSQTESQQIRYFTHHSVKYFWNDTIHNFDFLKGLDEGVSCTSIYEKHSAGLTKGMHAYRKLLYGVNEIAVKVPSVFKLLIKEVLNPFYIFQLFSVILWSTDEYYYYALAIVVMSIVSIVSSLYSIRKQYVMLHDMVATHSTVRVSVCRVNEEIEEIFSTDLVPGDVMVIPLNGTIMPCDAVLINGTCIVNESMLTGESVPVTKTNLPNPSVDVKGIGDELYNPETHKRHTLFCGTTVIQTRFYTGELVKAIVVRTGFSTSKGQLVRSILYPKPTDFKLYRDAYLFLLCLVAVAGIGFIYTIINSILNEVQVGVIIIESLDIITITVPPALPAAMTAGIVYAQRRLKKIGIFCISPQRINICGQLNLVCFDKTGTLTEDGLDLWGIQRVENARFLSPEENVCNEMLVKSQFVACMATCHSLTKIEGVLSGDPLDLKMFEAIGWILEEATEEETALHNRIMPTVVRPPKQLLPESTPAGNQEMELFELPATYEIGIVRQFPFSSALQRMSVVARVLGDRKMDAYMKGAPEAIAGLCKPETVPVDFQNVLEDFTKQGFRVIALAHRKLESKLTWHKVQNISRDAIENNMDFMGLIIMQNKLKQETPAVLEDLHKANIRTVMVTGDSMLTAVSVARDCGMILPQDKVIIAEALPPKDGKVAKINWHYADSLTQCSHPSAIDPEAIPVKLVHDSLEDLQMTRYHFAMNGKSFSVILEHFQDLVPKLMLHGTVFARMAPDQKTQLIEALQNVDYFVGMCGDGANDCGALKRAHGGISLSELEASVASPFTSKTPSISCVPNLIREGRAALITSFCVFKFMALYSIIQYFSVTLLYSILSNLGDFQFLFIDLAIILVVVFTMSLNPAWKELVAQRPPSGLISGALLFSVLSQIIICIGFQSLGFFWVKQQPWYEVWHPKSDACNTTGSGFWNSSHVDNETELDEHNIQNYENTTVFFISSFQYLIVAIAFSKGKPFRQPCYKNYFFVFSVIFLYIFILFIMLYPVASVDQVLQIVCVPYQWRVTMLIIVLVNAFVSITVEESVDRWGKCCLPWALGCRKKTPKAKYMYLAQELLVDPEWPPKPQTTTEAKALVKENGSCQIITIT
Experiment: radiolabeled uptake in HMEC-1 cells, WT versus D498N overexpression
Assay type: cell-based
Conditions: 30 min, 37 °C, labelled compound

Row | SMILES | fold uptake at 5 μM [fold]
1 | NCCCCN [14C-PUT] | 26
2 | NCCCCNCCCN [14C-SPD] | 41

Reference: paper PMC9953717, “Novel Green Fluorescent Polyamines to Analyze ATP13A2 and ATP13A3 Activity in the Mammalian Polyamine Transport System” (Biomolecules, 2023)
